Like-named read-outs stand apart in the source and are kept apart here.
Tests used:
herpesvirus 5 = herpesvirus 5 plaque reduction assay in MRC-5 cell monolayers; assay type: cell-based, human herpesvirus 5 (HCMV)
Protocol: Compound 1 was isolated from a unique Taiwanese plant (Taiwania cryptomerioides). See, e.g., Chang et al. (2000) Phytochemistry 55: 227. Antiviral drug ganciclovir (i.e., […], GCV) was purchased from Sigma. Both compounds were solubilized in 100% dimethyl sulfoxide (DMSO) at a concentration of 10 mM and stored at −20° C. The compounds were added to cultures such that the resulting concentrations of DMSO never exceed 0.05%, by volume. To reserve the stability of both compounds, Compound 1 and GCV were never stored in cell culture medium and made fresh for each experiment.
Human cell lines, HEL299 (ATCC CCL-137), MRC-5 (ATCC CCL-171), H1299 (CRL-5803), and ARPE19 (CRL-2302) were grown in respective culture media as indicated by the ATCC. All cell lines were screened periodically for mycoplasma contamination. Two HCMV lab strains, AD169 (VR-538) and the Town strain RC256 (the ATCC VR-2356) were purchased from ATCC. All stocks of HCMV were prepared as described in Spaete & Mocarski (1985) J Virol 54(3): 817-24.
The activities of Compound 1 and GCV against herpesvirus 5 were determined by a plaque reduction assay. All herpesvirus 5 plaque reduction assays were performed with monolayer cultures of MRC-5 cells in 6-well cluster dishes (Costar, Cambridge, Mass.). Briefly, one day before the experiment, MRC-5 cells were seeded into 6-well plates at a final concentration of 5×10^6 cells/well. On the day of virus inoculation, cells were treated with each test compound at a desired concentration for one hour before virus inoculation. The serially-diluted virus inoculums containing 10^5 to 10^0 PFU of herpesvirus […] were then added into cell cultures and incubated for additional 2 hours at 37° C. After the incubation, the cells were extensively washed with phosphate buffered saline (PBS) three times and then overlayed with the overlay medium containing 0.3% agar in the absence or presence of the test compounds. The cell cultures were maintained in the 37° C. incubator for two weeks. After removing the overlay agar, the cells were stained with crystal violet.

[1] = system: herpesvirus 5 immediate early protein 2 (IE2 protein); assay: expression of herpesvirus 5 IE2 and late proteins in infected HEL299 cells; assay type: cell-based; conditions: AD169, MOI 1.0, lysates day 0-7 post-infection
Protocol: Cell-free virus stock, whose titer had been determined by a plaque reduction assay, was used. One day before the experiment, herpesvirus 5-permissive cells were seeded into 6-well plates at a final concentration of 5×10^6 cells/well. On the day of viral infection, the cells were incubated with or without a test compound (Compound 1 or GCV) for one hour. Subsequently, the cells were washed with PBS twice and serum-free medium were added during virus inoculation. The virus inocula were approximately at a multiplicity of infection (MOI) of 0.1 to 1 PFU/cell depending on which cell line was used. After two hours of incubation with viruses, cells were washed with PBS to remove unbound viruses. The cells were maintained at fresh media with or without test compounds at 37° C. with 5% CO2 incubator. The cell lysate samples were collected on day 0, 1, 3, 5, and 7 after virus infection.
More specifically, HEL299 cells were infected with herpesvirus 5 lab strain AD169 at an MOI of 1.0. Cell lysates were then collected after 2 hours of virus absorption on day 0, 1, 3, 5, and 7 post-infection. IE2 protein in virally infected cells was expressed rapidly on day 1 and increased dramatically on day 5. The expression of herpesvirus 5 late proteins was also detected on days 5 and 7 post-infection.

[2] = cytotoxic effect by MTS assay; assay type: cell-based; conditions: human, read-out: LC50 value (i.e., half lethal concentration)
Protocol: The cytotoxic effect was also determined using the MTS (3-(4,5-dimethylthiazol-2-yl)-5-(3-carboxymethoxyphenyl)-2-(4-sulfophenyl)-2H-tetrazolium, inner salt) assay method described in Goodwin et al. (1995, J. Immunol. Methods. 179: 95).

[3] = system: herpesvirus 5 ie and pp150 transcripts; assay: reverse transcription (RT) assay of ie and pp150 transcripts in infected HEL299 cells; assay type: cell-based, herpesvirus 5 lab strain AD169; conditions: AD169, MOI 1.0, total RNA day 0-7 post-infection
Protocol: To determine whether the absence of IE2 protein expression was due to Compound 1-induced abrogation at the transcriptional level, a reverse transcription (RT) assay was performed to measure the IE2 mRNA in the absence or presence of Compound 1. Basically, HEL299 cells were infected with herpesvirus 5 lab strain AD169 at a MOI of 1.0. Total RNAs were then extracted, collected after 2 hours of virus absorption on day 0, 1, 3, 5, and 7 post-infection. The expression of immediate early (ie) and late (pp150) gene products were determined by amplifying segments spanning at a common region shared by ie genes 1 and 2, and the 5′ end of pp150. As an internal control, a segment spanning β-actin was also amplified. […] The expression of pp150 transcripts was also detected after day 3.

SMILES | IC50 (herpesvirus 5; Human betaherpesvirus 5, MRC5, plaque reduction, MRC-5 cells, herpesvirus 5, read-out: IC50 value (i.e., 50% infectious concentration)) [nM] | detection of IE2 and late viral proteins in infected cells [1] | CC50 [2] [nM] | IC50 (herpesvirus 5; Human betaherpesvirus 5, MRC5, read-out: IC50 value (i.e., 50% infectious concentration)) [nM] | potency relative to GCV (herpesvirus 5; IC50 compared with that of GCV) | SI (selectivity index=LC50/IC50) (herpesvirus 5; LC50 (MTS)/IC50 (plaque reduction)) | herpesvirus 5 growth in the presence of compound (herpesvirus 5; plaque reduction, MRC-5 cells) | detection of viral RNA (ie and pp150 transcripts) [3]
Nc1nc2c(ncn2COC(CO)CO)c(=O)[nH]1 [GCV, 2-amino-1,9-dihydro-9-[(2-hydroxy-1-(hydroxymethyl)ethoxy)methyl]-6H-purin-6-one, reference compound] | 1000 |  |  |  |  |  |  | 
O=C1OCc2c1cc1ccc3c(c1c2-c1ccc2c(c1)OCO2)OCO3 [Compound 1, 10-benzo[1,3]dioxol-5-yl-9H-furo[3′,4′:6,7]naphtho[1,2-d][1,3]dioxol-7-one] |  | none of these viral proteins was detected | > 16000 | < 100 | ten-fold more potent | > 160 | inhibited | none of these viral RNA was detected
